Measured values from patent US10711000B2 (Fronthera U.S. Pharmaceuticals LLC, priority 2018, dated 2020).
Where two headings read alike, the source gives them in different places.

Key:
Autotaxin [1] = target: T1, Autotaxin (Homo sapiens, UniProt Q13822); experiment: LPA formation in pooled human plasma (ex vivo autotaxin inhibition); type: biochemical; conditions: 2 hours incubation
T1 construct: from tissue; host or cells: pooled human plasma
In short: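 Pooled human plasma incubated 2 h with various compound concentrations; LPA 18:2 and 20:4 quantified by LC/MS/MS (negative-ion MRM, LPA17:0 internal standard) after butanol extraction. Inhibition of LPA formation relative to untreated plasma; IC50 by non-linear regression.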

Autotaxin [2] = target: T2, Autotaxin (Rattus norvegicus, UniProt Q64610); experiment: Pharmacodynamics: LPA 18:2 inhibition in plasma of SD rats after oral dose; conditions: single oral dose, LPA18:2 inhibition vs plasma concentration of compound, read-out: In vivo rat IC50 (LPA 18:2) (converted)
T2 construct: from tissue; host or cells: SD rats in vivo; plasma sampled after a single oral dose
Source text: (§1) The pharmacokinetics and pharmacodynamics of test compounds after a single oral dose were investigated in SD rats, Beagle dog and Cynomolgus monkey. SD Rats (200-250 g) were purchased from Beijing Vital River Laboratory Animal Technology Co., Ltd. Male Beagle Dog, 6-9 kg, were purchased from Beijing Mashall. Male Cynomolgus monkeys, 3-5 kg, were purchased from Suzhou Xishan Zhongke Drugs Research and Development Co., Ltd. Following arrival, the animals were acclimated for 7 days in individual cages maintained at ambient temperature, 34 to 68% relative humidity, and 12-h light/dark cycles. Just prior to dose administration the rats were fasted overnight with free access to water. Animals were given 10 mL/kg of formulated compound in 0.5% methylcellulose (MC) by oral gavage, and the animals were fed four hours after dosing. The animals were manually restrained at the designated time points (pre-dose, 0.5, 1, 3, 6, 9, 12, and 24 h post-dose) to collect blood. Approximately 120 μL of blood was collected via orbital sinus into K2EDTA tubes. The blood samples were centrifuged at 5000 rpm for 10 min at 4° C. to obtain plasma samples.
Autotaxin is a secreted phosphodiesterase that converts lysophosphatidylcholine (LPC) into lysophosphatidic acid (LPA), and LPA 18:2 formation was used to evaluate the efficacy of autotaxin inhibitors. Therefore, the LPA 18:2 formation in response to drug administration was analyzed in each time point to assess the pharmacodynamics of test compounds. To determine the LPA18:2 concentration in study plasma, a 10× calibration standard of LPA 18:2 were prepared by serial dilution in butyl alcohol: 20000, 10000, 5000, 2000, 1000, 500, 200, 100, 50, 20, and 10 ng/mL. 3 μL of calibration standard solution was added into 27.0 μL of blank plasma in 1.5-mL microcentrifuge tubes to generate 1× calibration standards. The 30.0 μL of standards or study plasma was added into 1.5-mL microcentrifuge tubes. 200 μL of butyl alcohol (containing 25.0 ng/mL LPA17:0 for internal control) was added into each 1.5-mL microcentrifuge tube containing study plasma or calibration standards. After vortexing for 1 minute and centrifuging at 10000 rpm for 10 min, 180 μL of supernatant was transferred into a 96-well plate and the LPA18:2 concentration in the plasma was quantitated using LC/MS/MS together with standards. Briefly, 8 μL of the solutions were injected for LC-MS/MS analysis using an ACQUITY UPLC BEH C18 column (2.1×50 mm, 1.7 μm) with mobile phase A [20 mM NH4OAC in water (0.1% FA)] and phase B [5 mM NH4OAC in water/0.2% FA in ACN=5:95]. Mass spectrometer parameters optimization for LPA18:2 were performed by infusing standard diluted at 1 μg/mL in butyl Alcohol directly in the ionization source, at a flow of 10 μL/min. Deprotonated molecular ion at m/z 433.2 ([M−H]−) for LPA18:2, and abundant product ion at m/z 152.8 for LPA18:2 were obtained. Quantitative data were acquired in multiple reaction monitoring (MRM) negative electrospray ionization mode
The percentage of LPA18:2 inhibition was plotted against the corresponding concentration of compound and the IC50 was calculated through non-linear regression fitting.

[3] = Pharmacokinetics after a single oral dose in SD rats; type: in vivo; conditions: Sprague-Dawley, rat, plasma, single oral dose in 0.5% methylcellulose; for half-life: read-out: T½ (converted)
Source text: as §1
To determine the compound concentration in the plasma samples, a 10× calibration standard of compound were prepared by serial dilution in DMSO: 20000, 10000, 5000, 2000, 1000, 500, 200, 100, 50, 20, and 10 ng/mL. 3 μL of calibration standard solution was added into 27.0 μL of blank plasma in 1.5-mL microcentrifuge tubes to generate 1× calibration standards. The 30.0 μL of standards or study plasma was mixed with 200 μL of acetonitrile (containing 5 ng/mL verapamil for internal control) in a 1.5-mL microcentrifuge tube. After vertexing for 1 minute and centrifuging at 10000 rpm for 10 min, 180 μL of supernatant was transferred into a 96-well plate and the compound concentration in the plasma was quantitated using LC/MS/MS together with standards. Briefly, 1 μL of the solutions were injected for LC-MS/MS analysis using an Agilent Zorbax C18 column (50×2.1 mm, 3.5 μm) with mobile phase A [5 mM NH4Ac (0.1% FA)] and phase B [Methanol (0.1% FA)]. Mass spectrometer parameters optimization for compound was performed by infusing standard diluted at 1 μg/mL in water/methanol (1/1, v/v) directly in the ionization source at a flow of 10 μL/min. Quantitative data were acquired in multiple reaction monitoring (MRM) positive APCI mode.

[4] = LPA 18:2 by LC/MS/MS, read-out: LPA formation (18:2) (IC50)
[5] = LPA 20:4 by LC/MS/MS, read-out: LPA formation (20:4) (IC50)

Compound	IC50 (Autotaxin [1]; [4]) [nM]	IC50 (Autotaxin [1]; [5]) [nM]	IC50 (Autotaxin [2]) [nM]	AUC [3] [ng·h/mL]	Cmax [3] [ng/mL]	half-life [3] [h]
CCc1nn2cc(F)c(N3CC4(CN(C(=O)C5CCN(C)CC5)C4)C3)cc2c1N(C)c1nc(-c2ccc(F)cc2)c(C#N)s1 [Example 106, 2-((2-ethyl-6-fluoro-5-(6-(1-methylpiperidine-4-carbonyl)-2,6-diazaspiro[3.3]heptan-2-yl)pyrazolo[1,5-a]pyridin-3-yl)(methyl)amino)-4-(4-fluorophenyl)thiazole-5-carbonitrile]	≤ 100	≤ 100	19.2	350 ± 156	29.2 ± 15	7.21 ± 0.98
CCc1nn2cc(F)c(N3CCN(CC(=O)N4CC[C@@H](O)C4)CC3)cc2c1N(C)c1nc(-c2ccc(F)cc2)c(C#N)s1 [Example 109, (R)-2-((2-ethyl-6-fluoro-5-(4-(2-(3-hydroxypyrrolidin-1-yl)-2-oxoethyl)piperazin-1-yl)pyrazolo[1,5-a]pyridin-3-yl)(methyl)amino)-4-(4-fluorophenyl)thiazole-5-carbonitrile]	≤ 100	≤ 100	10	269 ± 85	67.1 ± 24	3.46 ± 0.21
CCc1nn2cc(F)c(N3CC4(CN(C(=O)C5(O)CCOCC5)C4)C3)cc2c1N(C)c1nc(-c2ccc(F)cc2)c(C#N)s1 [Example 112, 2-[[2-ethyl-6-fluoro-5-[2-(4-hydroxytetrahydropyran-4-carbonyl)-2,6-diazaspiro[3.3]heptan-6-yl]pyrazolo[1,5-a]pyridin-3-yl]-methyl-amino]-4-(4-fluorophenyl)thiazole-5-carbonitrile]	≤ 100	≤ 100	97.5	4750 ± 1430	460 ± 178	3.77 ± 0.34
